Measured values from patent US20260226493A1, “HERBICIDE RESISTANT PLANTS” (SYNGENTA CROP PROTECTION AG, priority 2023, published 2026).

What was measured:
Assay in all cases: BIO3-BIO1 mutant enzyme activity in the presence of herbicide, percentage inhibition (fluorometric DAPA assay)
Format in all cases: biochemical
Conditions in all cases: read-out: percentage inhibition
[1] = target: T1, Arabidopsis thaliana BIO3-BIO1 (BioDA) mutants (Arabidopsis thaliana, UniProt B0F481, A609F)
T1 construct: with the predicted N-terminal mitochondrial transit peptide removed; 6xHis-tag (N); thrombin cleavage site (N); made in house; host or cells: E. coli BL21 (DE3) bioA
T1 sequence (B0F481 23-833 A609F): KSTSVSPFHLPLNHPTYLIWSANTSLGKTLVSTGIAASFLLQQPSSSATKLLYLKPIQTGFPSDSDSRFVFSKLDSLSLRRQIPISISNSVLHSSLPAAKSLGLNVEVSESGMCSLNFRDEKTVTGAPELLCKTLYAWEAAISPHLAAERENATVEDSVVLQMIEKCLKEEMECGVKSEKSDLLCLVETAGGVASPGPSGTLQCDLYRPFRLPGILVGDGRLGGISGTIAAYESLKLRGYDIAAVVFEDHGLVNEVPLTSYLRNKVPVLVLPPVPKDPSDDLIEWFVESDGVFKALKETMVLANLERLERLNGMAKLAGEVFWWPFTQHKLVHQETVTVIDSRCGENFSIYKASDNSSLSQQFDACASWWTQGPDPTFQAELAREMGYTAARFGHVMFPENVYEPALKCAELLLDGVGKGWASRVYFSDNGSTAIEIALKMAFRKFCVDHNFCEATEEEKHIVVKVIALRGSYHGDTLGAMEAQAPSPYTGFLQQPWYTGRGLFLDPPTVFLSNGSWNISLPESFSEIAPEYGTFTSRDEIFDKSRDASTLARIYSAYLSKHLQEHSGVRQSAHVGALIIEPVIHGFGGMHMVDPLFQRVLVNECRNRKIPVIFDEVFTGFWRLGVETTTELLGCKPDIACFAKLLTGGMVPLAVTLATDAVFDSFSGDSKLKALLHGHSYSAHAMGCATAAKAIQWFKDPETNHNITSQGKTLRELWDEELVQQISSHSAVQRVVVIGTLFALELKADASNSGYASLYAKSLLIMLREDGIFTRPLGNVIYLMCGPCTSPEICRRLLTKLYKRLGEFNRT
In short: (§1)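 His-tagged Arabidopsis BIO3-BIO1 mutants, expressed in E. coli and purified by IMAC and SEC, were preincubated at 50 nM with herbicide for 10 min at 20 °C in EPPS pH 8.6 with pyridoxal phosphate. Reaction with 100 μM spermidine and 20 μM KAPA ran 75 min at 20 °C; DAPA was derivatised with o-phthalaldehyde and read at ex 410/em 470 nm. […].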

[2] = target: T2, Arabidopsis thaliana BIO3-BIO1 (BioDA) mutants (Arabidopsis thaliana, UniProt B0F481, A609N)
T2 construct: with the predicted N-terminal mitochondrial transit peptide removed; 6xHis-tag (N); thrombin cleavage site (N); made in house; host or cells: E. coli BL21 (DE3) bioA
T2 sequence (B0F481 23-833 A609N): as the sequence (B0F481 23-833 A609F) above, with F587N counted along it
In short: as §1

[3] = target: T3, Arabidopsis thaliana BIO3-BIO1 (BioDA) mutants (Arabidopsis thaliana, UniProt B0F481, G513A)
T3 construct: with the predicted N-terminal mitochondrial transit peptide removed; 6xHis-tag (N); thrombin cleavage site (N); made in house; host or cells: E. coli BL21 (DE3) bioA
T3 sequence (B0F481 23-833 G513A): as the sequence (B0F481 23-833 A609F) above, with G491A, F587A counted along it
In short: as §1

[4] = target: T4, Arabidopsis thaliana BIO3-BIO1 (BioDA) mutants (Arabidopsis thaliana, UniProt B0F481, G700S)
T4 construct: with the predicted N-terminal mitochondrial transit peptide removed; 6xHis-tag (N); thrombin cleavage site (N); made in house; host or cells: E. coli BL21 (DE3) bioA
T4 sequence (B0F481 23-833 G700S): as the sequence (B0F481 23-833 A609F) above, with F587A, G678S counted along it
In short: as §1

[5] = target: T5, Arabidopsis thaliana BIO3-BIO1 (BioDA) mutants (Arabidopsis thaliana, UniProt B0F481, P510L)
T5 construct: with the predicted N-terminal mitochondrial transit peptide removed; 6xHis-tag (N); thrombin cleavage site (N); made in house; host or cells: E. coli BL21 (DE3) bioA
T5 sequence (B0F481 23-833 P510L): as the sequence (B0F481 23-833 A609F) above, with P488L, F587A counted along it
In short: as §1

[6] = target: T6, Arabidopsis thaliana BIO3-BIO1 (BioDA) mutants (Arabidopsis thaliana, UniProt B0F481, Q350S)
T6 construct: with the predicted N-terminal mitochondrial transit peptide removed; 6xHis-tag (N); thrombin cleavage site (N); made in house; host or cells: E. coli BL21 (DE3) bioA
T6 sequence (B0F481 23-833 Q350S): as the sequence (B0F481 23-833 A609F) above, with Q328S, F587A counted along it
In short: as §1

[7] = target: T7, Arabidopsis thaliana BIO3-BIO1 (BioDA) mutants (Arabidopsis thaliana, UniProt B0F481, Q517I)
T7 construct: with the predicted N-terminal mitochondrial transit peptide removed; 6xHis-tag (N); thrombin cleavage site (N); made in house; host or cells: E. coli BL21 (DE3) bioA
T7 sequence (B0F481 23-833 Q517I): as the sequence (B0F481 23-833 A609F) above, with Q495I, F587A counted along it
In short: as §1

[8] = target: T8, Arabidopsis thaliana BIO3-BIO1 (BioDA) mutants (Arabidopsis thaliana, UniProt B0F481, Q517Y)
T8 construct: with the predicted N-terminal mitochondrial transit peptide removed; 6xHis-tag (N); thrombin cleavage site (N); made in house; host or cells: E. coli BL21 (DE3) bioA
T8 sequence (B0F481 23-833 Q517Y): as the sequence (B0F481 23-833 A609F) above, with Q495Y, F587A counted along it
In short: as §1

[9] = target: T9, Arabidopsis thaliana BIO3-BIO1 (BioDA) mutants (Arabidopsis thaliana, UniProt B0F481, R756S)
T9 construct: with the predicted N-terminal mitochondrial transit peptide removed; 6xHis-tag (N); thrombin cleavage site (N); made in house; host or cells: E. coli BL21 (DE3) bioA
T9 sequence (B0F481 23-833 R756S): as the sequence (B0F481 23-833 A609F) above, with F587A, R734S counted along it
In short: as §1

[10] = target: T10, Arabidopsis thaliana BIO3-BIO1 (BioDA) mutants (Arabidopsis thaliana, UniProt B0F481, S509Q)
T10 construct: with the predicted N-terminal mitochondrial transit peptide removed; 6xHis-tag (N); thrombin cleavage site (N); made in house; host or cells: E. coli BL21 (DE3) bioA
T10 sequence (B0F481 23-833 S509Q): as the sequence (B0F481 23-833 A609F) above, with S487Q, F587A counted along it
In short: as §1

[11] = target: T11, Arabidopsis thaliana BIO3-BIO1 (BioDA) mutants (Arabidopsis thaliana, UniProt B0F481, S509R)
T11 construct: with the predicted N-terminal mitochondrial transit peptide removed; 6xHis-tag (N); thrombin cleavage site (N); made in house; host or cells: E. coli BL21 (DE3) bioA
T11 sequence (B0F481 23-833 S509R): as the sequence (B0F481 23-833 A609F) above, with S487R, F587A counted along it
In short: as §1

[12] = target: T12, Arabidopsis thaliana BIO3-BIO1 (BioDA) mutants (Arabidopsis thaliana, UniProt B0F481, S509W)
T12 construct: with the predicted N-terminal mitochondrial transit peptide removed; 6xHis-tag (N); thrombin cleavage site (N); made in house; host or cells: E. coli BL21 (DE3) bioA
T12 sequence (B0F481 23-833 S509W): as the sequence (B0F481 23-833 A609F) above, with S487W, F587A counted along it
In short: as §1

Row | SMILES | inhibition at 1 µM [1] [%] | inhibition at 1 µM [2] [%] | inhibition at 1 µM [3] [%] | inhibition at 1 µM [4] [%] | inhibition at 1 µM [5] [%] | inhibition at 1 µM [6] [%] | inhibition at 1 µM [7] [%] | inhibition at 1 µM [8] [%] | inhibition at 1 µM [9] [%] | inhibition at 1 µM [10] [%] | inhibition at 1 µM [11] [%] | inhibition at 1 µM [12] [%] | inhibition at 0.2 µM [1] [%] | inhibition at 5 µM [1] [%] | inhibition at 0.2 µM [2] [%] | inhibition at 5 µM [2] [%] | inhibition at 0.2 µM [3] [%] | inhibition at 5 µM [3] [%] | inhibition at 0.2 µM [4] [%] | inhibition at 5 µM [4] [%] | other results
1 | CCOC(=O)c1nn(-c2ccc3c(c2)OC(F)(F)C(F)(F)O3)c2cccc(C(C)=O)c2c1=O [Compound A, ethyl 5-acetyl-4-oxo-1-(2,2,3,3-tetrafluoro-1,4-benzodioxin-6-yl)cinnoline-3-carboxylate] | 6 | 78 | 64 | 0 | 82 | 42 | 28 | 52 | 67 | 8 | 15 | 0 | – | – | – | – | – | – | – | – | –
2 | CCn1c(C)c(-c2ccc(F)cc2F)c(=O)c(C(=O)O)c1-c1ccc(Cl)c(Cl)c1 [Compound C, 2-(3,4-dichlorophenyl)-5-(2,4-difluorophenyl)-1-ethyl-6-methyl-4-oxo-pyridine-3-carboxylic acid] | 5 | 36 | 63 | 0 | 84 | 35 | 58 | 86 | 57 | 82 | 87 | 92 | 5 | 20 | 45 | 53 | 10 | 88 | 9 | 9 | inhibition at 0.2 µM [5]: 67%; inhibition at 5 µM [5]: 96%; inhibition at 0.2 µM [6]: 2%; inhibition at 5 µM [6]: 66%; inhibition at 0.2 µM [7]: 25%; inhibition at 5 µM [7]: 82%; inhibition at 0.2 µM [8]: 49%; inhibition at 5 µM [8]: 97%; inhibition at 0.2 µM [9]: 24%; inhibition at 5 µM [9]: 83%; inhibition at 0.2 µM [10]: 23%; inhibition at 5 µM [10]: 99%; inhibition at 0.2 µM [11]: 42%; inhibition at 5 µM [11]: 98%; inhibition at 0.2 µM [12]: 14%; inhibition at 5 µM [12]: 103%
3 | CCn1c(Cn2ccc(C(F)(F)F)n2)cc(=O)c(C(=O)O)c1-c1ccc(Cl)c(Cl)c1 [Compound L, 2-(3,4-dichlorophenyl)-1-ethyl-4-oxo-6-[[3-(trifluoromethyl)pyrazol-1-yl]methyl]pyridine-3-carboxylic acid] | – | – | – | – | – | – | – | – | – | – | – | – | – | – | – | – | – | – | – | – | inhibition at 0.01 µM [1]: 10%; inhibition at 0.075 µM [1]: 0%; inhibition at 0.5 µM [1]: 16%; inhibition at 0.01 µM [2]: 83%; inhibition at 0.075 µM [2]: 83%; inhibition at 0.5 µM [2]: 85%; inhibition at 0.01 µM [3]: 0%; inhibition at 0.075 µM [3]: 57%; inhibition at 0.5 µM [3]: 90%; inhibition at 0.01 µM [4]: 9%; inhibition at 0.075 µM [4]: 3%; inhibition at 0.5 µM [4]: 3%; inhibition at 0.01 µM [5]: 35%; inhibition at 0.075 µM [5]: 88%; inhibition at 0.5 µM [5]: 97%; inhibition at 0.01 µM [6]: 11%; inhibition at 0.075 µM [6]: 38%; inhibition at 0.5 µM [6]: 59%
4 | CCn1c(-c2ccc(Cl)c(Cl)c2)c(C(=O)O)c(=O)c2cc(F)ccc21 [Compound M, 2-(3,4-dichlorophenyl)-1-ethyl-6-fluoro-4-oxo-quinoline-3-carboxylic acid] | 26 | 49 | 58 | 0 | 77 | 22 | 44 | 71 | 54 | 76 | 82 | 60 | 19 | 66 | 44 | 62 | 25 | 90 | 8 | 9 | inhibition at 0.2 µM [5]: 54%; inhibition at 5 µM [5]: 94%; inhibition at 0.2 µM [6]: 4%; inhibition at 5 µM [6]: 44%; inhibition at 0.2 µM [7]: 19%; inhibition at 5 µM [7]: 72%; inhibition at 0.2 µM [8]: 36%; inhibition at 5 µM [8]: 90%; inhibition at 0.2 µM [9]: 23%; inhibition at 5 µM [9]: 78%; inhibition at 0.2 µM [10]: 23%; inhibition at 5 µM [10]: 96%; inhibition at 0.2 µM [11]: 48%; inhibition at 5 µM [11]: 96%; inhibition at 0.2 µM [12]: 0%; inhibition at 5 µM [12]: 95%
